Measurements from publication PMC10544018 (Journal of Medicinal Chemistry, 2023).

How the values were obtained:
human serum albumin = human serum albumin (Homo sapiens, UniProt P02768); assay: PPB studies on HSA HPLC column; format: in vitro ADME; conditions: CHIRALPAK HSA HPLC column (human serum albumin); experimentally determined percentage of the compound bound to human serum albumin
Procedure: (§1) Both were experimentally obtained employing HPLC-based protocols.[39],[40] […] PPB values were determined in view of how they could impact future pharmacokinetic studies of compounds as VHL inhibitors, or once conjugated into bifunctional PROTACs, for which PPB can be a limiting factor.
PPB was estimated by correlating the logarithmic retention times of the analytes on a […] HSA 50 × 3 mm, 5 μm column with the literature-known % PPB values (converted into log K values) of the following drugs: warfarin, ketoprofen, budesonide, nizatidine, indomethacin, acetylsalicylic acid, carbamazepine, piroxicam, nicardipine, and cimetidine.[63] Samples were dissolved in MeCN/DMSO 9:1 to achieve a final concentration of 0.5 mg/mL. The mobile phase A was 50 mM ammonium acetate adjusted to pH 7.4 with 10% NaOH, while mobile phase B was iPrOH. […] After injecting 3 μL of the sample, a linear gradient from 100% A to 30% iPrOH in 5.4 min was applied. From 5.4 to 18 min, 30% iPrOH was kept, followed by switching back to 100% A in 1.0 min and a re-equilibration time of 6 min.

VCB protein = molecular target: T1, VCB protein (Homo sapiens, UniProt P40337); assay: Competitive fluorescence polarization (FP) binding assay, displacement of FAM-labeled HIF-1α peptide; conditions: for Kd: dissociation constant, determined by FP, mean ± S.E.M., back-calculated from IC50; for IC50: mean IC50 values obtained from the FP assay, read-out: IC50 ± S.E.M, FP assay
T1 construct: A plasmid containing pVHL54–213 with an N-terminal His6 tag; His6 (N, cleaved yes); made in house; host or cells: Escherichia coli BL21 (DE3)
Procedure: Binding of a ligand to the HIF binding site of VHL displaces a fluorescein-labeled, 19-mer HIF-1α oligopeptide, leading to a change in polarization of emitted light upon excitation of the competing fluorescent probe.
All components were dissolved from stock solutions using 100 mM Bis–Tris, 100 mM NaCl, 1 mM DTT, pH 7.0, to yield a final assay volume of 15 μL. DMSO was added as appropriate to ensure a final concentration of 2% (v/v). Control wells containing VCB and JC9 with no compound (zero displacement), or JC9, in the absence of protein (maximum displacement) were also included to allow for normalization. Percentage displacement values were obtained by normalization of controls and were plotted against log[compound]. The IC50 values were determined for each titration using non-linear regression analysis with Prism GraphPad (Table S1). Dissociation constants Kd for the compound–VCB interaction were back-calculated from the measured IC50 values by using a displacement binding model as described.[16],[64]

[1] = Log D7.4 measurement by chromatographic method; format: physicochemical; conditions: experimental distribution coefficient at pH 7.4; read-out: e log D7.4
Procedure: as §1
The determination of the log D7.4 values was performed by a chromatographic method as described previously.[41],[62] […] Subsequently, the mean retention times (n = 2) of the analytes were taken to calculate their log D7.4 values.

| fraction unbound at 0.5 mg/mL (human serum albumin) | Kd (VCB protein) | IC50 (VCB protein) | chromatographic logD [1] | SMILES |
| --- | --- | --- | --- | --- |
| 0.12 | 183 ± 22 nM | 837 ± 35 nM | 1.9 | COc1cc(-c2scnc2C)ccc1CNC(=O)[C@@H]1C[C@@H](O)CN1C(=O)[C@@H](NC(=O)C1(C#N)CC1)C(C)(C)C [Compound 3, (2S,4R)-1-((S)-2-(1-Cyanocyclopropane-1-carboxamido)-3,3-dimethylbutanoyl)-4-hydroxy-N-(2-methoxy-4-(4-methylthiazol-5-yl)benzyl)pyrrolidine-2-carboxamide] |
| 0.09 | 245 ± 20 nM | 1140 ± 131 nM | 2.2 | Cc1ncsc1-c1ccc(CNC(=O)[C@@H]2C[C@@H](O)CN2C(=O)[C@@H](NC(=O)C2(C#N)CC2)C(C)(C)C)c(Cl)c1 [Compound 5, (2S,4R)-N-(2-Chloro-4-(4-methylthiazol-5-yl)benzyl)-1-((S)-2-(1-cyanocyclopropane-1-carboxamido)-3,3-dimethylbutanoyl)-4-hydroxypyrrolidine-2-carboxamide] |
| 0.09 | 220 ± 11 nM | 1030 ± 127 nM | 2.1 | Cc1ncsc1-c1ccc(CNC(=O)[C@@H]2C[C@@H](O)CN2C(=O)[C@@H](NC(=O)C2(C#N)CC2)C(C)(C)C)cc1Cl [Compound 9, (2S,4R)-N-(3-Chloro-4-(4-methylthiazol-5-yl)benzyl)-1-((S)-2-(1-cyanocyclopropane-1-carboxamido)-3,3-dimethylbutanoyl)-4-hydroxypyrrolidine-2-carboxamide] |
| 0.1 | 4110 ± 560 nM | 21100 ± 2180 nM | 2.2 | Cc1cc(-c2scnc2C)cc(C)c1CNC(=O)[C@@H]1C[C@@H](O)CN1C(=O)[C@@H](NC(=O)C1(C#N)CC1)C(C)(C)C [Compound 10, (2S,4R)-1-((S)-2-(1-Cyanocyclopropane-1-carboxamido)-3,3-dimethylbutanoyl)-N-(2,6-dimethyl-4-(4-methylthiazol-5-yl)benzyl)-4-hydroxypyrrolidine-2-carboxamide] |
| – | 2550 ± 510 nM | 10600 ± 2030 nM | 2.3 | Cc1ncsc1-c1cc2c(cc1F)[C@@H](NC(=O)[C@@H]1C[C@@H](O)CN1C(=O)[C@@H](NC(=O)C1(F)CC1)C(C)(C)C)CC2 [Compound 36, (2S,4R)-N-((S)-6-Fluoro-5-(4-methylthiazol-5-yl)-2,3-dihydro-1H-inden-1-yl)-1-((S)-2-(1-fluorocyclopropane-1-carboxamido)-3,3-dimethylbutanoyl)-4-hydroxypyrrolidine-2-carboxamide] |

Second part, the compound before the results:

| SMILES | fraction unbound at 0.5 mg/mL (human serum albumin) | Kd (VCB protein) | IC50 (VCB protein) | chromatographic logD [1] |
| --- | --- | --- | --- | --- |
| Cc1cc(-c2scnc2C)ccc1CNC(=O)[C@@H]1C[C@@H](O)CN1C(=O)[C@@H](NC(=O)C1(C#N)CC1)C(C)(C)C [Compound 2, (2S,4R)-1-((S)-2-(1-Cyanocyclopropane-1-carboxamido)-3,3-dimethylbutanoyl)-4-hydroxy-N-(2-methyl-4-(4-methylthiazol-5-yl)benzyl)pyrrolidine-2-carboxamide] | 0.1 | 149 ± 28 nM | 668 ± 33 nM | 2 |
| Cc1ncsc1-c1ccc(CNC(=O)[C@@H]2C[C@@H](O)CN2C(=O)[C@@H](NC(=O)C2(C#N)CC2)C(C)(C)C)c(F)c1 [Compound 4, (2S,4R)-1-((S)-2-(1-Cyanocyclopropane-1-carboxamido)-3,3-dimethylbutanoyl)-N-(2-fluoro-4-(4-methylthiazol-5-yl)benzyl)-4-hydroxypyrrolidine-2-carboxamide] | 0.12 | 297 ± 34 nM | 1360 ± 56 nM | 1.9 |
| Cc1cc(CNC(=O)[C@@H]2C[C@@H](O)CN2C(=O)[C@@H](NC(=O)C2(C#N)CC2)C(C)(C)C)ccc1-c1scnc1C [Compound 6, (2S,4R)-1-((S)-2-(1-Cyanocyclopropane-1-carboxamido)-3,3-dimethylbutanoyl)-4-hydroxy-N-(3-methyl-4-(4-methylthiazol-5-yl)benzyl)pyrrolidine-2-carboxamide] | 0.11 | 496 ± 62 nM | 2260 ± 73 nM | 2 |
| COc1cc(CNC(=O)[C@@H]2C[C@@H](O)CN2C(=O)[C@@H](NC(=O)C2(C#N)CC2)C(C)(C)C)ccc1-c1scnc1C [Compound 7, (2S,4R)-1-((S)-2-(1-Cyanocyclopropane-1-carboxamido)-3,3-dimethylbutanoyl)-4-hydroxy-N-(3-methoxy-4-(4-methylthiazol-5-yl)benzyl)pyrrolidine-2-carboxamide] | 0.13 | 163 ± 22 nM | 742 ± 14 nM | 1.9 |
| Cc1ncsc1-c1ccc(CNC(=O)[C@@H]2C[C@@H](O)CN2C(=O)[C@@H](NC(=O)C2(C#N)CC2)C(C)(C)C)cc1F [Compound 8, (2S,4R)-1-((S)-2-(1-Cyanocyclopropane-1-carboxamido)-3,3-dimethylbutanoyl)-N-(3-fluoro-4-(4-methylthiazol-5-yl)benzyl)-4-hydroxypyrrolidine-2-carboxamide] | 0.12 | 97 ± 11 nM | 444 ± 18 nM | 1.9 |
| COc1cc(-c2scnc2C)cc(OC)c1CNC(=O)[C@@H]1C[C@@H](O)CN1C(=O)[C@@H](NC(=O)C1(C#N)CC1)C(C)(C)C [Compound 11, (2S,4R)-1-((S)-2-(1-Cyanocyclopropane-1-carboxamido)-3,3-dimethylbutanoyl)-N-(2,6-dimethoxy-4-(4-methylthiazol-5-yl)benzyl)-4-hydroxypyrrolidine-2-carboxamide] | 0.12 | 6240 ± 620 nM | 32100 ± 2150 nM | 2 |
| Cc1ncsc1-c1cc(F)c(CNC(=O)[C@@H]2C[C@@H](O)CN2C(=O)[C@@H](NC(=O)C2(C#N)CC2)C(C)(C)C)c(F)c1 [Compound 12, (2S,4R)-1-((S)-2-(1-Cyanocyclopropane-1-carboxamido)-3,3-dimethylbutanoyl)-N-(2,6-difluoro-4-(4-methylthiazol-5-yl)benzyl)-4-hydroxypyrrolidine-2-carboxamide] | 0.14 | 2130 ± 150 nM | 11000 ± 747 nM | 1.9 |
| Cc1ncsc1-c1cc(Cl)c(CNC(=O)[C@@H]2C[C@@H](O)CN2C(=O)[C@@H](NC(=O)C2(C#N)CC2)C(C)(C)C)c(Cl)c1 [Compound 13, (2S,4R)-1-((S)-2-(1-Cyanocyclopropane-1-carboxamido)-3,3-dimethylbutanoyl)-N-(2,6-dichloro-4-(4-methylthiazol-5-yl)benzyl)-4-hydroxypyrrolidine-2-carboxamide] | 0.09 | 8150 ± 680 nM | 42000 ± 1920 nM | 2.4 |
| Cc1cc(-c2scnc2C)c(C)cc1CNC(=O)[C@@H]1C[C@@H](O)CN1C(=O)[C@@H](NC(=O)C1(C#N)CC1)C(C)(C)C [Compound 14, (2S,4R)-1-((S)-2-(1-Cyanocyclopropane-1-carboxamido)-3,3-dimethylbutanoyl)-N-(2,5-dimethyl-4-(4-methylthiazol-5-yl)benzyl)-4-hydroxypyrrolidine-2-carboxamide] | 0.1 | 528 ± 16 nM | 2740 ± 122 nM | 2.2 |
| COc1c(CNC(=O)[C@@H]2C[C@@H](O)CN2C(=O)[C@@H](NC(=O)C2(C#N)CC2)C(C)(C)C)ccc(-c2scnc2C)c1F [Compound 21, (2S,4R)-1-((S)-2-(1-Cyanocyclopropane-1-carboxamido)-3,3-dimethylbutanoyl)-N-(3-fluoro-2-methoxy-4-(4-methylthiazol-5-yl)benzyl)-4-hydroxypyrrolidine-2-carboxamide] | 0.11 | – | – | 2.1 |
| Cc1ncsc1-c1ccc(CNC(=O)[C@@H]2C[C@@H](O)CN2C(=O)[C@@H](NC(=O)C2(F)CC2)C(C)(C)C)cc1 [Compound 38, (2S,4R)-1-((S)-2-(1-Fluorocyclopropane-1-carboxamido)-3,3-dimethylbutanoyl)-4-hydroxy-N-(4-(4-methylthiazol-5-yl)benzyl)pyrrolidine-2-carboxamide, reference compound] | 0.14 | – | – | 1.8 |
